Test results reported in patent publication US11492347B2 (ENYO PHARMA, priority 2018, dated 2022).

System: H1N1 (influenza A/New Caledonia/20/99)
Assay: microbe, parasite or virus in culture
Format: cell-based
Conditions: H1N1, A549, 48 h

Structure (SMILES) | IC50
COC1CN(c2ccc(C(=O)Nc3sc4c(c3C(=O)O)CC(C)(C)CC4)cc2)C1 [#163, 2-[[4-(3-Methoxyazetidin-1-yl)benzoyl]amino]-5,5-dimethyl-6,7-dihydro-4H-benzothiophene-3-carboxylic acid] | 0.018 µM
CC1(C)CCc2c(sc(NC(=O)c3ccnc(N4CCOCC4)c3)c2C(=O)O)C1 [#222, 6,6-Dimethyl-2-[(2-morpholinopyridine-4-carbonyl)amino]-5,7-dihydro-4H-benzothiophene-3-carboxylic acid] | 0.051 µM
O=C(Nc1sc2c(c1C(=O)O)CCC1(CC1)C2)c1ccc(F)cc1 [Compound #32, 2-[(4-Fluorobenzoyl)amino]spiro[5,7-dihydro-4H-benzothiophene-6,1′-cyclopropane]-3-carboxylic acid] | 0.16 µM
CC1(C)Cc2c(sc(NC(=O)c3ccc(NCC4CCCOC4)cc3)c2C(=O)O)C(C)(C)C1 (stereo not shown) [Compound #141, 5,5,7,7-Tetramethyl-2-[[4-(tetrahydropyran-3-ylmethylamino)benzoyl]amino]-4,6-dihydrobenzothiophene-3-carboxylic acid] | 0.0033 µM
CC1(C)CCCc2sc(NC(=O)c3ccccc3)c(C(=O)O)c21 [Compound #42, 2-Benzamido-4,4-dimethyl-6,7-dihydro-5H-benzothiophene-3-carboxylic acid] | 0.192 µM
CC1(C)CCc2c(sc(NC(=O)c3cnc(N4CCOCC4)nc3)c2C(=O)O)C1 [#208, 6,6-Dimethyl-2-[(2-morpholinopyrimidine-5-carbonyl)amino]-5,7-dihydro-4H-benzothiophene-3-carboxylic acid] | 0.74 µM
CCOC1CN(c2ccc(C(=O)Nc3sc4c(c3C(=O)O)CC(C)(C)CC4(C)C)cc2)C1 [Compound #156, 2-[[4-(3-Ethoxyazetidin-1-yl)benzoyl]amino]-5,5,7,7-tetramethyl-4,6-dihydrobenzothiophene-3-carboxylic acid] | 0.002 µM
CC1(C)CCc2c(sc(NC(=O)c3ccc(OC(F)F)cc3)c2C(=O)O)C1 [Compound #23, 2-[[4-(Difluoromethoxy)benzoyl]amino]-6,6-dimethyl-5,7-dihydro-4H-benzothiophene-3-carboxylic acid] | 0.08 µM
CC1(C)Cc2c(sc(NC(=O)c3ccc(N4CC(F)(F)C4)cc3)c2C(=O)O)C(C)(C)C1 [Compound #148, 2-[[4-(3,3-Difluoroazetidin-1-yl)benzoyl]amino]-5,5,7,7-tetramethyl-4,6-dihydrobenzothiophene-3-carboxylic acid] | 0.0026 µM
CC1CC(C)(C)Cc2sc(NC(=O)c3ccc(NCC4CCOCC4)cc3)c(C(=O)O)c21 (stereo not shown) [Compound #157, 4,6,6-Trimethyl-2-[[4-(tetrahydropyran-4-ylmethylamino)benzoyl]amino]-5,7-dihydro-4H-benzothiophene-3-carboxylic acid] | 0.005 µM
CC1(C)CCc2c(sc(NC(=O)c3ccccn3)c2C(=O)O)C1 [Compound #96, 6,6-Dimethyl-2-(pyridine-2-carbonylamino)-5,7-dihydro-4H-benzothiophene-3-carboxylic acid] | 0.8 µM
CC1(C)Cc2c(sc(NC(=O)c3ccc(NC4CCCCC4)cc3)c2C(=O)O)C(C)(C)C1 [Compound #149, 2-[[4-(Cyclohexylamino)benzoyl]amino]-5,5,7,7-tetramethyl-4,6-dihydrobenzothiophene-3-carboxylic acid] | 0.0071 µM
CC1(C)Cc2c(sc(NC(=O)c3ccncn3)c2C(=O)O)C(C)(C)C1 [#205, 5,5,7,7-Tetramethyl-2-(pyrimidine-4-carbonylamino)-4,6-dihydrobenzothiophene-3-carboxylic acid] | 0.74 µM
CC1(C)CCc2sc(NC(=O)c3ccc(N4CCOCC4)cc3)c(C(=O)O)c2C1 [Compound #159, 5,5-Dimethyl-2-[(4-morpholinobenzoyl)amino]-6,7-dihydro-4H-benzothiophene-3-carboxylic acid] | 0.018 µM
COc1cccc(C(=O)Nc2sc3c(c2C(=O)O)CCC(C)(C)C3)c1 [Compound #21, 2-[(3-Methoxybenzoyl)amino]-6,6-dimethyl-5,7-dihydro-4H-benzothiophene-3-carboxylic acid] | 0.0558 µM
CC1(C)CCc2c(sc(NC(=O)c3cccc(N4CCOCC4)c3)c2C(=O)O)C1 [#203, 6,6-Dimethyl-2-[(3-morpholinobenzoyl)amino]-5,7-dihydro-4H-benzothiophene-3-carboxylic acid] | 0.13 µM
CC1(C)Cc2c(sc(NC(=O)c3ccc(N4CCOCC4)nc3)c2C(=O)O)C(C)(C)C1 [#201, 5,5,7,7-Tetramethyl-2-[(6-morpholinopyridine-3-carbonyl)amino]-4,6-dihydrobenzothiophene-3-carboxylic acid] | 0.15 µM
CN(CC1CCOCC1)c1ccc(C(=O)Nc2sc3c(c2C(=O)O)CC(C)(C)CC3(C)C)cc1 [Compound #152, 5,5,7,7-Tetramethyl-2-[[4-[methyl(tetrahydropyran-4-ylmethyl)amino]benzoyl]amino]-4,6-dihydrobenzothiophene-3-carboxylicacid] | 0.0005 µM
CC1(C)CCc2sc(NC(=O)c3cccc(N4CCOCC4)n3)c(C(=O)O)c2C1 [#213, 5,5-Dimethyl-2-[(6-morpholinopyridine-2-carbonyl)amino]-6,7-dihydro-4H-benzothiophene-3-carboxylic acid] | 0.61 µM

Structure (SMILES) | IC50
Cc1ccccc1C(=O)Nc1sc2c(c1C(=O)O)CCC(C#N)(c1ccccc1)C2 (stereo not shown) [Compound #105, 6-Cyano-2-[(2-methylbenzoyl)amino]-6-phenyl-5,7-dihydro-4H-benzothiophene-3-carboxylic acid] | 1.08 µM
CC(=O)N1CCC(Nc2ccc(C(=O)Nc3sc4c(c3C(=O)O)CC(C)(C)CC4(C)C)cc2)CC1 [Compound #63, 2-[[4-[(1-Acetyl-4-piperidyl)amino]benzoyl]amino]-5,5,7,7-tetramethyl-4,6-dihydrobenzothiophene-3-carboxylic acid] | 0.08 µM
COCCNc1ccc(C(=O)Nc2sc3c(c2C(=O)O)C(C)(C)CC3)cc1 [Compound #64, 2-[[4-(2-Methoxyethylamino)benzoyl]amino]-4,4-dimethyl-5,6-dihydrocyclopenta[b]thiophene-3-carboxylicacid] | 0.09 µM
CC1(C)Cc2c(sc(NC(=O)c3ccc(NC4CCOC4)cc3)c2C(=O)O)C(C)(C)C1 (stereo not shown) [Compound #61, 5,5,7,7-Tetramethyl-2-[[4-(tetrahydrofuran-3-ylamino)benzoyl]amino]-4,6-dihydrobenzothiophene-3-carboxylic acid] | 0.0279 µM
Cn1cc(C(=O)Nc2sc3c(c2C(=O)O)CC(C)(C)CC3(C)C)cn1 [#176, 5,5,7,7-Tetramethyl-2-[(1-methylpyrazole-4-carbonyl)amino]-4,6-dihydrobenzothiophene-3-carboxylic acid] | 0.46 µM
CC1(C)Cc2c(sc(NC(=O)c3ccc(OC4CCOCC4)cc3)c2C(=O)O)C(C)(C)C1 [#170, 5,5,7,7-Tetramethyl-2-[(4-tetrahydropyran-4-yloxybenzoyl)amino]-4,6-dihydrobenzothiophene-3-carboxylic acid] | 0.035 µM
CC1(C)Cc2c(sc(NC(=O)c3ccc(OCC4COC4)cc3)c2C(=O)O)C(C)(C)C1 [#167, 5,5,7,7-Tetramethyl-2-[[4-(oxetan-3-ylmethoxy)benzoyl]amino]-4,6-dihydrobenzothiophene-3-carboxylic acid] | 0.108 µM
CC1(C)CCc2sc(NC(=O)c3ccc(OC(F)(F)F)cc3)c(C(=O)O)c21 [Compound #40, 4,4-Dimethyl-2-[[4-(trifluoromethoxy)benzoyl]amino]-5,6-dihydrocyclopenta[b]thiophene-3-carboxylic acid] | 0.23 µM
COCCn1ccc(C(=O)Nc2sc3c(c2C(=O)O)CC(C)(C)CC3)n1 [#226, 2-[[1-(2-Methoxyethyl)pyrazole-3-carbonyl]amino]-5,5-dimethyl-6,7-dihydro-4H-benzothiophene-3-carboxylic acid] | 0.82 µM
Cn1cc(C(=O)Nc2sc3c(c2C(=O)O)CCC(C)(C)C3)cn1 [#212, 6,6-Dimethyl-2-[(1-methylpyrazole-4-carbonyl)amino]-5,7-dihydro-4H-benzothiophene-3-carboxylic acid] | 0.9 µM
O=C(Nc1sc2c(c1C(=O)O)CCC(F)(F)C2)c1ccccc1 [Compound #117, 2-Benzamido-6,6-difluoro-5,7-dihydro-4H-benzothiophene-3-carboxylic acid] | 1.9 µM
CC1(C)CCc2c(sc(NC(=O)c3cccc(N4CCOCC4)n3)c2C(=O)O)C1 [#219, 6,6-Dimethyl-2-[(6-morpholinopyridine-2-carbonyl)amino]-5,7-dihydro-4H-benzothiophene-3-carboxylic acid] | 0.51 µM
CC1(C)CCc2sc(NC(=O)c3ccc(Br)cc3)c(C(=O)O)c2C1 [Compound #154, 2-[(4-Bromobenzoyl)amino]-5,5-dimethyl-6,7-dihydro-4H-benzothiophene-3-carboxylic acid] | 0.03 µM
COC1CN(c2ccc(C(=O)Nc3sc4c(c3C(=O)O)C(C)(C)CC4)cc2)C1 [Compound #146, 2-[[4-(3-Methoxyazetidin-1-yl)benzoyl]amino]-4,4-dimethyl-5,6-dihydrocyclopenta[b]thiophene-3-carboxylicacid] | 0.083 µM
CN1CCN(c2ccc(C(=O)Nc3sc4c(c3C(=O)O)CC(C)(C)CC4(C)C)cc2)CC1 [Compound #80, 5,5,7,7-Tetramethyl-2-[[4-(4-methylpiperazin-1-yl)benzoyl]amino]-4,6-dihydrobenzothiophene-3-carboxylic acid] | 0.31 µM
COC1CC(N(C)c2ccc(C(=O)Nc3sc4c(c3C(=O)O)CC(C)(C)CC4(C)C)cc2)C1 (stereo not shown) [#165, 2-[[4-[(3-Methoxycyclobutyl)-methyl-amino]benzoyl]amino]-5,5,7,7-tetramethyl-4,6-dihydrobenzothiophene-3-carboxylic acid] | 0.0117 µM
O=C(Nc1sc2c(c1C(=O)O)C1CCC2C1)c1ccccc1 (stereo not shown) [Compound #28, 2-Benzamido-4,5,6,7-tetrahydro-4,7-methanobenzo[b]thiophene-3-carboxylic acid] | 1.27 µM
COCCNc1ccc(C(=O)Nc2sc3c(c2C(=O)O)C(C)CC(C)(C)C3)cc1 (stereo not shown) [Compound #145, 2-1-[[4-(2-Methoxyethylamino)benzoyl]amino]-4,6,6-trimethyl-5,7-dihydro-411-benzothiophene-3-carboxylic acid] | 0.032 µM
